Source: article PMC6934184, “Selective DNA-PKcs inhibition extends the therapeutic index of localized radiotherapy and chemotherapy” (The Journal of Clinical Investigation, 2019)

Molecular target: T1, PRKACG (PRKAC gamma) (Homo sapiens, UniProt P22612)
T1 construct: purchased Thermo Fisher Scientific (Life Technologies) SelectScreen
Assay: SelectScreen LanthaScreen
Format: binding
Settings: read-out: % displacement
Method in brief: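 Percent values come from Thermo SelectScreen profiling of NU5455, combining activity and binding assays. CSF1R was run in Z'LYTE format at Km app ATP, and CAMK1 in Adapta format with ATP listed at 10.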

T1 sequence (P22612 whole entry): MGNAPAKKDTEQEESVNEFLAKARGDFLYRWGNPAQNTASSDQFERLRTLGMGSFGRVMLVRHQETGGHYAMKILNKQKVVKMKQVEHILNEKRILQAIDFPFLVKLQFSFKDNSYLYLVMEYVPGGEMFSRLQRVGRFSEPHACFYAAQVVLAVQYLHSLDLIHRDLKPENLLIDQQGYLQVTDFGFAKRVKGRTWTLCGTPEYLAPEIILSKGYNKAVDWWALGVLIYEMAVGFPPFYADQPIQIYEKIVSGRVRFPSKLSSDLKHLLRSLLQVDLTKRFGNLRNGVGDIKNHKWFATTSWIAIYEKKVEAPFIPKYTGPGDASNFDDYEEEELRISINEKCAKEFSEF

In the case of `CN(C(=O)CN1CCOCC1)c1ccc2sc3c(-c4cccc5c(=O)cc(N6CC7CCC(C6)O7)oc45)cccc3c2c1` [NU5455], the inhibition at 1 µM is reported as -0.2%.
